Results on four molecules are retold here after PMC12952243, “Dual targeting of the mitochondrial Lon peptidase 1 and the chymotrypsin-like proteasome activity as a potential therapeutic strategy in malignant astrocytoma models” (Pharmacological research, 2024).

The assay concerns the target T1, Mitochondrial Lon Peptidase 1 (LonP1) (Homo sapiens, UniProt P36776).
T1 construct: LonP1 immunopurified from mitochondria of HOG cells overexpressing LonP1
T1 sequence (P36776 68-959): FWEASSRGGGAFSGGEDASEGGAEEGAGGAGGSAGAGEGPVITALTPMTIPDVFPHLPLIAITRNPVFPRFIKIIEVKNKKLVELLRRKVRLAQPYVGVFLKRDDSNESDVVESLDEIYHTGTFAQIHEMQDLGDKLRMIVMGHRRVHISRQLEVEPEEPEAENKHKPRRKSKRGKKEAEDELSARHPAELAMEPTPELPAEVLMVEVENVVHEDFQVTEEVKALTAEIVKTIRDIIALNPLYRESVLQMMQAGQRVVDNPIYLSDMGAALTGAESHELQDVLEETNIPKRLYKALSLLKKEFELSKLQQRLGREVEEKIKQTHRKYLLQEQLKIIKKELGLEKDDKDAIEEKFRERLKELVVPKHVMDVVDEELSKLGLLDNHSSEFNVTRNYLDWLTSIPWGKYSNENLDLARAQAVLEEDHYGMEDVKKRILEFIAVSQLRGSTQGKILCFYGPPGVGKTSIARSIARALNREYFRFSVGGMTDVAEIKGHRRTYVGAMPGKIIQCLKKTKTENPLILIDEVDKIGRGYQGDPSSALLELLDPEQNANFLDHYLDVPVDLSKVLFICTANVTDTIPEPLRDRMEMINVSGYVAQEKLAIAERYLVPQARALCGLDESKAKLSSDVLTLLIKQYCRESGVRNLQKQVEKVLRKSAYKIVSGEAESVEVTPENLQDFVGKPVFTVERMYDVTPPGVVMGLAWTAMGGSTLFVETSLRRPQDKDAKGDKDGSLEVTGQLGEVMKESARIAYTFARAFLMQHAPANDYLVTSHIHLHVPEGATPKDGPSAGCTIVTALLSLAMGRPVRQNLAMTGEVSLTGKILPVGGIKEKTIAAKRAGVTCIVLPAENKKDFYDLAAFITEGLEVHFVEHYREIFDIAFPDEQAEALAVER
Kind of assay: FITC-casein fluorescent protease assay with immunopurified LonP1. The assay is classed as biochemical.
As for `O=C(Nc1ccc(O)cc1)c1cc2cc(Cl)ccc2oc1=O` [BT317], half-maximal inhibition (IC50) required 31.2 µM.

For the molecule `Cc1cc(NC(C#N)C2=Cc3cc(Cl)cc(Cl)c3OC2c2ccccc2)ccc1B1OC(C)(C)C(C)(C)O1` (stereo not shown) [BT395], the IC50 (usually the point on the concentration scale where inhibition reaches its midpoint) is 50 µM.

For the molecule `Cc1cc(NC(C#N)C2=Cc3cc(Cl)cc(Cl)c3OC2c2ccccc2)ccc1[B-](F)(F)F` (stereo not shown) [BT397], the IC50 was 34.5 µM.

For `CC1(C)OB(c2cccc(N(Cc3ccccc3)C(=O)CCl)c2)OC1(C)C` [BT399], the IC50 is 124 µM.
